The record followed here is patent publication US8809366B2, “Thienopyridine ester derivative containing cyano group, preparation method, use and composition thereof” (Tianjin Institute of Pharmaceutical Research, priority 2011, dated 2014).

Data set [1] relates to ADP-induced platelet aggregation. As to the kind of experiment: Inhibiting effect on rat platelet aggregation (ADP-induced, PRP taken 2 h after intragastric administration). The class given is in vivo, Wistar rats. The conditions noted are these: blood 2 h after administration, ADP final concentration 1.08 μM, X ± SD. As for the experimental part: Experiments of Inhibiting Effect on Rat Platelet Aggregation:
ADP: produced by SIGMA Co.
Wistar rats: SPF grade, male, provided by The Institute of Laboratory Animal Science, Chinese Academy of Medical Sciences, license No. SCXK (jing) 2005-0013.
PAM-3 Dual Channel Platelet Aggregometer: produced by Jiangsu Danyang Radio Factory.
Healthy male Wistar rats weighing 200-250 g were selected and randomly divided into groups. The experiments were carried out in three batches, and each batch was distributed into a normal control group and 6 compound groups, and totally two dose groups were tested in each batch. […] Intragastric administration with a dose volume of 10 ml/kg·bw was used. The normal control group was given the same amount of 0.5% CMC-Na. 2 h after administration, 40 mg/kg of pentobarbital sodium was intraperitoneally injected (1 ml/kg) for anesthesia, and blood was collected from the abdominal aorta. 3.8% sodium citrate was used for anticoagulation, and platelet-rich plasma (PRP) and platelet-poor plasma (PPP) were prepared respectively. Maximum percentage of ADP (final concentration: 1.08 μM) induced platelet aggregation was tested on a PAM-3 Dual Channel Platelet Aggregometer.

The conditions of data set [2]: 1000 mg/kg intragastric once a day; from the third day of administration. As for the experimental part:
Two Weeks of Toxicity Studies on Rats (Compared with Clopidogrel)
100 mg/ml suspension is prepared before use, and administrated intragastricly at 1 ml/100 g every morning.
Experimental animals: SD rats weighing about 180 g, 7 female and 7 male in each group.
The same amount of solvent is administrated intragastricly to the blank control group, and equal-dose (1000 mg/kg) of Clopidogrel is administrated intragastricly to the positive control group.

The conditions of data set [3]: rat, in vivo.
Where [4] appears, read: 15 mg/kg intragastric, n=10, control group 74.2 ± 20.8.
Where [5] appears, read: 30 mg/kg intragastric, n=6, control group 47.1 ± 14.2.

For `CC(=O)Oc1cc2c(s1)CCN(Cc1ccccc1C#N)C2` [Compound I-1, (5-(2-cyanobenzyl)-4,5,6,7-tetrahydrothieno[3,2-c]pyridin-2-yl)acetate], the “Maximum percentage of aggregation” value in data set [1] (setting [4]) was 20.5 ± 25.5%. The “Maximum percentage of aggregation” value in data set [1] (setting [5]) turned out to be 8.4 ± 8.3%. In addition, in data set [2], the “hemorrhagic secretions around the rats' nasal” value is recorded as “obviously slight in the compound I-1 group than in the Clopidogrel group”. Besides, in data set [3], the “conversion rate into active metabolites thiols, higher than Clopidogrel” value is recorded as “about 5 times” and the “time to peak concentration of active metabolites” value (“time to peak concentration” below) was in the range of 50 to 60 min.

For `COC(=O)[C@H](c1ccccc1Cl)N1CCc2sccc2C1` [Clopidogrel, reference compound], the “hemorrhagic secretions around the rats' nasal” value in data set [2] is recorded as “hemorrhagic secretions around the rats' nasal can be observed”.

As to `CC(=O)Oc1cc2c(s1)CCN(Cc1ccc(C#N)cc1)C2` [Compound I-3], the “Maximum percentage of aggregation” value is 22.7 ± 24.1% in data set [1] (setting [4]) and 8.7 ± 17.8% in data set [1] (setting [5]). Further, in data set [3], the “conversion rate into active metabolites thiols, higher than Clopidogrel” value is listed as “about 5 times”. Also, the “time to peak concentration” value in data set [3] was 50 to 60 min.

Regarding `CC(=O)Oc1cc2c(s1)CCN(Cc1cccc(C#N)c1)C2` [Compound I-2, (5-(3-cyanobenzyl)-4,5,6,7-tetrahydrothieno[3,2-c]pyridin-2-yl)acetate], in data set [1] (setting [4]), the “Maximum percentage of aggregation” value was found to be 29.8 ± 24.3%. In data set [1] (setting [5]), the “Maximum percentage of aggregation” value is on record as 4.9 ± 28.4%. For the same molecule, in data set [3], the “conversion rate into active metabolites thiols, higher than Clopidogrel” value is given as “about 5 times” and the “time to peak concentration” value lay in the range of 50 to 60 min.
